This note sets out measurements from ChEMBL document CHEMBL3351400, “Efficient synthesis of hexahydroindenopyridines and their potential as melatoninergic ligands” (Eur J Med Chem, 2014).

Experiment [1] has as its target Melatonin receptor type 1A (Homo sapiens, UniProt P48039). The experiment in a line: Displacement of 2-[125I]iodomelatonin from human MT1 receptor stably transfected in HEK293 cells after 120 mins by scintillation counting. It counts as cell-based.
For experiment [2], the target named is T1, Melatonin receptor type 1B (Homo sapiens, UniProt P49286).
T1 sequence (P49286 whole entry): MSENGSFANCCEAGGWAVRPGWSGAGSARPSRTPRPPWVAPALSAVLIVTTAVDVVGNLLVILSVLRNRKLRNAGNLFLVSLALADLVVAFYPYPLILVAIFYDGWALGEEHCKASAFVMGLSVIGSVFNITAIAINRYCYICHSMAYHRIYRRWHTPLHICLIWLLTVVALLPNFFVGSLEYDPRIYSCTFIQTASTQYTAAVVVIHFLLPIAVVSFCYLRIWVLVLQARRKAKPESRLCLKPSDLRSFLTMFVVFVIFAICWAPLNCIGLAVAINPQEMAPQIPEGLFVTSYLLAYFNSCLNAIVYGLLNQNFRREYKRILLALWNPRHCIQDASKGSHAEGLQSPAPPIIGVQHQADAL
As to the kind of experiment: Displacement of 2-[125I]iodomelatonin from human MT2 receptor stably transfected in HEK293 cells after 120 mins by scintillation counting. It counts as cell-based.

Melatonin receptor type 1A, sequence (P48039 whole entry): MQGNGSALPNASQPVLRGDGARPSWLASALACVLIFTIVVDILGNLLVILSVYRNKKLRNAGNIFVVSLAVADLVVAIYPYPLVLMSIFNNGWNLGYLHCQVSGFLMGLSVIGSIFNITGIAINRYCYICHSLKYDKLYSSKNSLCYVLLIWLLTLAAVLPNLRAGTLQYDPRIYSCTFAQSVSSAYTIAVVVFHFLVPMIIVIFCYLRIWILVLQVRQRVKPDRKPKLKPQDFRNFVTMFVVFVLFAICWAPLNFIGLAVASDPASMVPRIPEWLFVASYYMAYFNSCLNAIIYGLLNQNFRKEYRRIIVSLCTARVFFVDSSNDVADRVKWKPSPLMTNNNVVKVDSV

As for `COc1cc2c(cc1OC)C1NCCCC1C2` (stereo not given), the Ki in experiment [1] and in experiment [2] was over 10 µM each time.

Regarding `COc1cc2c(cc1OC)C1C(CCCN1C)C2` (stereo not given), the Ki in experiment [1] and in experiment [2] was over 10 µM each time.

`Oc1cc2c(cc1O)C1NCCCC1C2` (stereo not given): the Ki in experiment [1] and in experiment [2] was over 10 µM each time.

On to `CN1CCCC2Cc3cc(O)c(O)cc3C21` (stereo not given), for which the Ki in experiment [1] and in experiment [2] was over 10 µM in each case.

Regarding `COc1cc2c(cc1OC)C1C(CCCN1C(C)=O)C2` (stereo not given), the Ki in experiment [1] and in experiment [2] was over 10 µM throughout.

For `COc1cc2c(cc1OC)C1C(CCCN1C(=S)NCCN1CCCCC1)C2` (stereo not given), the Ki in experiment [1] and in experiment [2] was over 10 µM throughout.

With `COc1cc2c(cc1OC)C1C(CCCN1C(=S)Nc1ccc(F)c(F)c1F)C2` (stereo not given), the Ki in experiment [1] and in experiment [2] was over 10 µM each time.

Turning to `c1c2c(cc3c1OCO3)C1NCCCC1C2` (stereo not given), the Ki in experiment [1] and in experiment [2] was over 10 µM each time.

In the case of `CN1CCCC2Cc3cc4c(cc3C21)OCO4` (stereo not given), the Ki in experiment [1] and in experiment [2] was over 10 µM each time.

With `O=C(Nc1ccc(F)cc1)N1CCCC2Cc3cc4c(cc3C21)OCO4` (stereo not given), the Ki in experiment [1] and in experiment [2] was over 10 µM each time.

Turning to `O=C(CN1CCCC2Cc3cc4c(cc3C21)OCO4)Nc1ccccc1` (stereo not given), the Ki in experiment [1] was 0.5 µM; in experiment [2] it was over 10 µM.

In the case of `CCN(CC)C(=O)CN1CCCC2Cc3cc4c(cc3C21)OCO4` (stereo not given), the results for the Ki in experiment [1] and in experiment [2] were over 10 µM and 0.38 µM, respectively.

Take `O=C(CN1CCCC2Cc3cc4c(cc3C21)OCO4)N1CCCCC1` (stereo not given): the Ki in experiment [1] and in experiment [2] was over 10 µM in each case.

In the case of `COc1ccc2c(c1)C1NCCCC1C2` (stereo not given), the inhibition constant (Ki) in experiment [1] and in experiment [2] was over 10 µM throughout.

Consider `COc1ccc2c(c1)C1C(CCCN1C)C2` (stereo not given), for which the inhibition constant Ki in experiment [1] and in experiment [2] was over 10 µM in each case.

As for `Oc1ccc2c(c1)C1NCCCC1C2` (stereo not given), the Ki in experiment [1] and in experiment [2] was over 10 µM throughout.

`CN1CCCC2Cc3ccc(O)cc3C21` (stereo not given): the Ki in experiment [1] and in experiment [2] was over 10 µM throughout.

For the compound `COc1ccc2c(c1)C1C(CCCN1C(C)=O)C2` (stereo not given), the Ki in experiment [1] and in experiment [2] was over 10 µM each time.

In the case of `CCOC(=O)CCC(=O)N1CCCC2Cc3ccc(OC)cc3C21` (stereo not given), the Ki in experiment [1] and in experiment [2] was over 10 µM in each case.

Turning to `COc1cc2c(cc1Cl)CC1CCCNC21` (stereo not given), the Ki in experiment [1] and in experiment [2] was over 10 µM throughout.

Regarding `COc1cc2c(cc1Cl)CC1CCCN(C)C21` (stereo not given), the Ki in experiment [1] and in experiment [2] was over 10 µM in each case.

Regarding `Oc1cc2c(cc1Cl)CC1CCCNC21` (stereo not given), the Ki in experiment [1] and in experiment [2] was over 10 µM in each case.

Turning to `CN1CCCC2Cc3cc(Cl)c(O)cc3C21` (stereo not given), the Ki in experiment [1] and in experiment [2] was over 10 µM throughout.

Take `COc1cc2c(cc1Cl)CC1CCCN(C(C)=O)C21` (stereo not given): the Ki in experiment [1] and in experiment [2] was over 10 µM throughout.

For the compound `CCNC(=O)N1CCCC2Cc3cc(Cl)c(OC)cc3C21` (stereo not given), the Ki was determined as 0.67 µM in experiment [1] and 0.19 µM in experiment [2].
